# Reference: patent publication US20260174780A1, “BISMUTH-THIOL COMPOSITIONS AND METHODS FOR TREATING INFLAMMATORY DISEASES” (Microbion Corporation, priority 2022, published 2026)
# Entries after “also recorded” stand apart in the source; their conditions may differ. Read-outs that look alike come from different tables or passages of the source.
# What was measured:
# neutrophils = assay: In vitro model of neutrophil recruitment to the lung (transmigration, supernatant and conditioned media cytokines); type: cell-based, human; conditions: for viability of the cells: CF-conditioned media and normal media (LTB4); for neutrophil transmigration / recruitment: CF-conditioned media and LTB4
# Source text: FIG. 6 provides a description of the assay for in vitro modeling of neutrophil recruitment to the lung.
# FIG. 7 provides a summary of the process for comparing cellular and soluble inflammatory markers in vitro.
# The neutrophils used are primary cells harvested from normal healthy volunteers immediately prior to the study. Cellular and soluble inflammatory markers were compared in vitro as described in FIG. 7.
# [1] = Particle size by Nanosizer/Zetasizer Nano-S (volumetric mean diameter); type: physicochemical; conditions: resuspended in 2% Pluronic F-68, sonicated; two measurements
# Method: The dried particulate matter was characterized to assess the particle size properties. Briefly, particles were resuspended in 2% Pluronic® F-68 (BASF, Mt. Olive, NJ) and the suspension was sonicated for 10 minutes in a water bath sonicator at standard setting prior to analysis using a Nanosizer/Zetasizer Nano-S particle analyzer (model ZEN1600 (without zeta-potential measuring capacity), Malvern Instruments, Worcestershire, UK) according to the manufacturer's recommendations.
# A549 cells = assay: IL-10 expression (ELISA) in A549 cells; type: cell-based, human; conditions: 2 μg/mL and 4 μg/mL, 24 h, compared to untreated control
# Method: A549 cells were differentiated with 50 ng/mL PMA for 24 hours, followed by 24 hours in media prior to infection. Cells were washed with media and treated with insoluble BisEDT or other antibiotics, and incubated for 24 h post treatment. Cell media was then removed and frozen at −80° C. Samples were briefly vortexed before conducting ELISA analysis for IL-10 expression (FIG. 1). BisEDT at a concentration of 2 μg/mL and 4 μg/mL increased the level of IL-10 expression level in A549 cells compared to untreated control.
# BEAS-2B cells = assay: Cytokine ELISA in BEAS-2B cells; type: cell-based, human; conditions: 0.5, 1, 2 or 4 μg/mL, 24 hours, compared to untreated cells
# Method: Protocol: BEAS-2B cells were grown in tissue culture flasks and a 24-well plate was seeded with 2×10^5 cells/well and incubated at 37° C. and 5% CO2 for 48 hours. Select wells were treated with either 4 μg/mL, 2 μg/mL, 1 μg/mL, or 0.5 μg/mL BisEDT or left untreated as a control and incubated at 37° C. and 5% CO2 for 24 hours. Cell culture supernatant was collected from each well and stored at −20° C. until further ELISA analysis. On the day of the ELISA assays to determine the expression of each cytokine, cell culture supernatant was thawed, and the assays performed following the manufacturer's instructions. Cells were collected for RNA isolation using Qiagen RNeasy kit using manufacturers' instructions. Briefly, genomic DNA was degraded with DNase (Roche) and samples were incubated at 37° C. for 1 hour followed by 3 μL DNase inactivation reagent (Invitrogen) incubated at 37° C. for 2 minutes. Samples were centrifuged at maximum speed for 5 minutes to remove the inactivation reagent. RNA concentration and quality was evaluated using a Nanodrop. RNA samples were utilized to generate cDNA using cDNA synthesis kit (Bio-Rad). qPCR for AIM2 and actin (housekeeping gene) was conducted using SYBR green kit (Bio-Rad) along with standards.
# [2] = system: lung tissue of M. abscessus infected mice; assay: Lung histopathology in chronic M. abscessus infection study; type: in vivo, SCID/Beige mice
# Method: After 28 days of treatment with BisEDT, animals were euthanized by CO2 and secondary cardiac puncture to collect whole blood for quantitation of BisEDT concentration. Lungs and spleens from the CFU mice were homogenized with 1:1 H2O:Dey-Englev neutralizing broth to deactivate BisEDT. CFUs were determined after serial dilution. Mice for histology and the lung pair split, one half in formalin the other half weighed and snap frozen in liquid N2 to determine tissue concentration of BisEDT.
# Samples for histology were processed by the Veterinary Diagnostic Laboratory. Slides were stained with hematoxylin-eosin (HE stain) for general pathology as well as a slide for acid-fast stain to highlight the mycobacterial infection in lung tissue.
# [3] = system: cytokines in bronchoalveolar lavage fluid (BALF); assay: Cytokines in BALF of rats after a single inhaled dose of BisEDT; type: in vivo, Sprague-Dawley rats; conditions: day 8 compared to day 2; single low (1 mg/kg) or high (7 mg/kg) inhaled dose
# Method: Two concentrations (low: 1 mg/kg; high: 7 mg/kg) of BisEDT were evaluated by inhalation in rats.
# Bronchoalveolar lavage fluid (BALF) samples from day 2 (D2) and day 8 (D8) post treatment were analyzed for the expression of cytokines.
# Protocol: Sprague-Dawley rats were randomly assigned to a study group based on body weight. Adult, male Sprague-Dawley rats (n=6 per group) were exposed to the aerosolized test article (TA) with a single dose on Study Day 1. Groups 1, 2, and 3 were exposed by inhalation to 1 mg/kg (targeted presented dose) of BisEDT sample 1, BisEDT sample 2, or BisEDT sample 3, respectively. Groups 4, 5, and 6 were exposed by inhalation to 7 mg/kg (targeted presented dose) of BisEDT sample 1, BisEDT sample 2, or BisEDT sample 3, respectively. Animals were necropsied on Study Days 2, 4, and 8, and terminal blood collections were conducted at that time.
# Blood Processing: All blood samples were placed into a tube containing K3EDTA, and mixed thoroughly. Following mixing, blood obtained at the time of euthanasia was divided in half. Half of the blood sample was stored frozen without further processing pending bioanalysis. The remaining half was placed on wet ice before being processed to plasma by centrifugation at 2500×g for ≥10 minutes at 2 to 8° C. Plasma was aliquoted into a cryovial(s), snap frozen in liquid nitrogen, and stored at −80° C.±10° C. until cytokine analysis was performed using ELISA kits following manufacturer's instructions.
smiles,measurement,setting,value
"C1C[S][Bi]([S]CC[S][Bi]2[S]CC[S]2)[S]1 [BisEDT, 1,2-(Bis(1,3-dithia-2-bismolane)thio)ethane]",activity of caspase-1 (FLICA),neutrophils,slightly reduced
same,IL-18 level in transmigration supernatant,"neutrophils; 6 hours, compared to vehicle",appreciably lower level
same,viability of the cells,neutrophils,very high level of viability
same,viability of the cells,neutrophils; listed as pravibismane,no effect on cell viability
same,IL-18 in conditioned media,neutrophils; compared to vehicle,down-regulated
same,neutrophil transmigration / recruitment,neutrophils; compared to vehicle,lower level of neutrophil transmigration; also recorded: inhibits neutrophil recruitment
same,neutrophil transmigration / recruitment,"neutrophils; compared to vehicle, listed as pravibismane",reduced transmigration efficiency
same,IL-6 in conditioned media,neutrophils; conditioned media,Very minor changes
same,expression of VEGF,neutrophils; conditioned media,small increase
same,interferon-gamma in conditioned media,neutrophils; conditioned media,Very minor changes
same,activity of caspase-1 (FLICA),neutrophils; listed as pravibismane,slight reduction
same,IL-10 secretion,neutrophils; summary,substantially increased
same,CCL4 (macrophage inflammatory protein),"neutrophils; transmigration supernatant, 6-hour time point",reduced
same,peak VMD,[1],about 1.3 microns
same,IL-10 expression level,A549 cells,increased
same,expression of IL-1β,BEAS-2B cells,Consistent reduction
same,expression of IL-10,BEAS-2B cells,consistent increase
same,expression of TNF-α,BEAS-2B cells,Consistent reduction
same,inflammatory process caused by the test article in lung,"[2]; M. abscessus infected, BisEDT treated mice",no indication of an inflammatory process caused by the BisEDT
same,lung histomorphologic observation,"[2]; high-dose (1000 μg/kg/day), FIG. 5D",the inflammatory response was receding and clear airways were observed
same,lung histomorphologic observation,"[2]; low-dose (200 μg/kg/day), FIG. 5C",decrease of inflammatory infiltrate compared to untreated control and a decrease in hemorrhage
same,expression of IL-1β in BALF,[3],Consistent reduction
same,expression of IL-17A in BALF,[3],Consistent reduction
same,expression of TNF-α in BALF,[3],Consistent reduction
